# Source: patent US11274268B2, “Detergent compositions for removing heavy metals and formaldehyde” (FNG RESEARCH CO., LTD., priority 2017, dated 2022)
# Columns and labels:
# [1] = Formaldehyde removing ability test (GC); settings: 2.0% formaldehyde solution, 3 molar equivalents, room temperature
# human skin = experiment: Skin irritation test of active ingredient (patch method, CTFA guidelines); type: in vivo; settings: for Test result (number of subject) (+) / Test result (number of subject) (−) / Test result (number of subject) (++) / Test result (number of subject) (±): 20 subjects, 24 hours patch; for Test result (number of subject) (+): apparent reddening; for Test result (number of subject) (−): no erythema or symptoms; for Test result (number of subject) (++): reddened and swollen; for Test result (number of subject) (±): slightly reddish; for Degree of irritation: Equation 1
# Method: A total of 20 people (10 men and 10 women in their 20s and 30s) were tested for skin irritation using the patch method according to the guidelines of CTFA (The Cosmetic, Toiletry & Fragrance Association, Inc. Washington, D.C.).
# A filter paper disk was placed in an 8 mm diameter, 10 panels of pin chamber.
# After 24 hours, the pin chamber was removed, and skin conditions were visually observed. The degree and grade for skin irritation were calculated according to the following Equation 1, and the results are shown in Table 3 below.
# [Criteria for Skin Irritation]
# (−): No erythema or particularly no symptoms; (±): slightly reddish than the periphery; (+): Apparent reddening than periphery; (++): More reddened and swollen than periphery.
# [Grade for Skin Irritation]
# Degree of irritation 0-0.1: Grade I (unstimulated);
# Degree of irritation 0.11-0.3: Grade II (weakly stimulated);
# Degree of irritation 0.31-0.5: Grade III (moderately stimulated);
# Degree of irritation 0.51 or more: Grade IV (strongly stimulated)
structure (smiles),measurement,setting,value
"NCCNCCNCCN [Trientine, Triethylenetetramine, reference compound]","Area (formaldehyde, GC)",[1]; 30 min,0.168 mAU * min
same,"Area (formaldehyde, GC)",[1]; 180 min,0 mAU * min
same,"Area (formaldehyde, GC)",[1]; Initial,0.305 mAU * min
same,Grade,human skin; content 0.1%,I (Degree of irritation 0-0.1: Grade I (unstimulated))
same,Test result (number of subject) (+),human skin; content 0.1%,0
same,Test result (number of subject) (−),human skin; content 0.1%,20
same,Test result (number of subject) (++),human skin; content 0.1%,0
same,Test result (number of subject) (±),human skin; content 0.1%,0
same,Degree of irritation,human skin; content 0.1%,0
same,Grade,human skin; content 0.5%,I (Degree of irritation 0-0.1: Grade I (unstimulated))
same,Test result (number of subject) (+),human skin; content 0.5%,0
same,Test result (number of subject) (−),human skin; content 0.5%,19
same,Test result (number of subject) (++),human skin; content 0.5%,0
same,Test result (number of subject) (±),human skin; content 0.5%,1
same,Degree of irritation,human skin; content 0.5%,0.05
same,Grade,human skin; content 1.0%,II (Degree of irritation 0.11-0.3: Grade II (weakly stimulated))
same,Test result (number of subject) (+),human skin; content 1.0%,0
same,Test result (number of subject) (−),human skin; content 1.0%,17
same,Test result (number of subject) (++),human skin; content 1.0%,0
same,Test result (number of subject) (±),human skin; content 1.0%,3
same,Degree of irritation,human skin; content 1.0%,0.15
